Measured values from patent publication US9156845B2, “4-(substituted amino)-7H-pyrrolo[2,3-d] pyrimidines as LRRK2 inhibitors” (Pfizer Inc., priority 2012, dated 2015).
Where two headings read alike, the source gives them in different places.

How the values were obtained:
mutant G2019S LRRK2 = mutant G2019S LRRK2 (Homo sapiens (Human), UniProt Q5S007, G2019S); test: LRRK2 Lantha Screen kinase assay, mutant enzyme; type: biochemical; settings: geometric mean of 2-5 determinations unless otherwise indicated (a: >=6 determinations; b: single determination)
AKT2, AKT3 = test: ActivX kinase probe assay (human PBMC); type: binding
BTK = BTK (Homo sapiens (Human), UniProt Q06187); test: ActivX kinase probe assay (human PBMC); type: binding; settings: read-out: percent inhibition
CaMK1d = CaMK1d (Homo sapiens (Human), UniProt Q8IU85); test: ActivX kinase probe assay (human PBMC); type: binding; settings: read-out: percent inhibition
CDK11, CDK8 = test: ActivX kinase probe assay (human PBMC); type: binding
DNAPK = DNAPK (Homo sapiens (Human), UniProt P78527); test: ActivX kinase probe assay (human PBMC); type: binding; settings: read-out: percent inhibition
FAK = FAK (Homo sapiens (Human), UniProt Q05397); test: ActivX kinase probe assay (human PBMC); type: binding; settings: read-out: percent inhibition
FGR = FGR (Homo sapiens (Human), UniProt P09769); test: ActivX kinase probe assay (human PBMC); type: binding; settings: read-out: percent inhibition
FYN, SRC, YES = test: ActivX kinase probe assay (human PBMC); type: binding
GSK3A = GSK3A (Homo sapiens (Human), UniProt P49840); test: ActivX kinase probe assay (human PBMC); type: binding; settings: read-out: percent inhibition
IKKa = IKKa (Homo sapiens (Human), UniProt O15111); test: ActivX kinase probe assay (human PBMC); type: binding; settings: read-out: percent inhibition
IRE1 = IRE1 (Homo sapiens (Human), UniProt O75460); test: ActivX kinase probe assay (human PBMC); type: binding; settings: read-out: percent inhibition
LATS1 = LATS1 (Homo sapiens (Human), UniProt O95835); test: ActivX kinase probe assay (human PBMC); type: binding; settings: read-out: percent inhibition
LYN = LYN (Homo sapiens (Human), UniProt P07948); test: ActivX kinase probe assay (human PBMC); type: binding; settings: read-out: percent inhibition
MAP3K3 = MAP3K3 (Homo sapiens (Human), UniProt Q99759); test: ActivX kinase probe assay (human PBMC); type: binding; settings: read-out: percent inhibition
MAP3K4 = MAP3K4 (Homo sapiens (Human), UniProt Q9Y6R4); test: ActivX kinase probe assay (human PBMC); type: binding; settings: read-out: percent inhibition
MARK2 = MARK2 (Homo sapiens (Human), UniProt Q7KZI7); test: ActivX kinase probe assay (human PBMC); type: binding; settings: read-out: percent inhibition
MST1 = MST1 (Homo sapiens (Human), UniProt Q13043); test: ActivX kinase probe assay (human PBMC); type: binding; settings: read-out: percent inhibition
MST1, MST2 = test: ActivX kinase probe assay (human PBMC); type: binding
MST2 = MST2 (Homo sapiens (Human), UniProt Q13188); test: ActivX kinase probe assay (human PBMC); type: binding; settings: read-out: percent inhibition
OSR1 = OSR1 (Homo sapiens (Human), UniProt O95747); test: ActivX kinase probe assay (human PBMC); type: binding; settings: read-out: percent inhibition
p70S6Kb = p70S6Kb (Homo sapiens (Human), UniProt Q9UBS0); test: ActivX kinase probe assay (human PBMC); type: binding; settings: read-out: percent inhibition
PCTAIRE2, PCTAIRE3 = test: ActivX kinase probe assay (human PBMC); type: binding
PI4KB = PI4KB (Homo sapiens (Human), UniProt Q9UBF8); test: ActivX kinase probe assay (human PBMC); type: binding; settings: read-out: percent inhibition
PIK3CB = PIK3CB (Homo sapiens (Human), UniProt P42338); test: ActivX kinase probe assay (human PBMC); type: binding; settings: read-out: percent inhibition
PIK3CD = PIK3CD (Homo sapiens (Human), UniProt O00329); test: ActivX kinase probe assay (human PBMC); type: binding; settings: read-out: percent inhibition
PIP4K2A = PIP4K2A (Homo sapiens (Human), UniProt P48426); test: ActivX kinase probe assay (human PBMC); type: binding; settings: read-out: percent inhibition
PKD2 = PKD2 (Homo sapiens (Human), UniProt Q9BZL6); test: ActivX kinase probe assay (human PBMC); type: binding; settings: read-out: percent inhibition
PYK2 = PYK2 (Homo sapiens (Human), UniProt Q14289); test: ActivX kinase probe assay (human PBMC); type: binding; settings: read-out: percent inhibition
RSK1 domain1 = RSK1 domain1 (Homo sapiens (Human), UniProt Q15418); test: ActivX kinase probe assay (human PBMC); type: binding; settings: read-out: percent inhibition
RSK2 domain1 = RSK2 domain1 (Homo sapiens (Human), UniProt P51812); test: ActivX kinase probe assay (human PBMC); type: binding; settings: read-out: percent inhibition
TAO2 = TAO2 (Homo sapiens (Human), UniProt Q9UL54); test: ActivX kinase probe assay (human PBMC); type: binding; settings: read-out: percent inhibition

Chain of BTK (Q06187 whole entry): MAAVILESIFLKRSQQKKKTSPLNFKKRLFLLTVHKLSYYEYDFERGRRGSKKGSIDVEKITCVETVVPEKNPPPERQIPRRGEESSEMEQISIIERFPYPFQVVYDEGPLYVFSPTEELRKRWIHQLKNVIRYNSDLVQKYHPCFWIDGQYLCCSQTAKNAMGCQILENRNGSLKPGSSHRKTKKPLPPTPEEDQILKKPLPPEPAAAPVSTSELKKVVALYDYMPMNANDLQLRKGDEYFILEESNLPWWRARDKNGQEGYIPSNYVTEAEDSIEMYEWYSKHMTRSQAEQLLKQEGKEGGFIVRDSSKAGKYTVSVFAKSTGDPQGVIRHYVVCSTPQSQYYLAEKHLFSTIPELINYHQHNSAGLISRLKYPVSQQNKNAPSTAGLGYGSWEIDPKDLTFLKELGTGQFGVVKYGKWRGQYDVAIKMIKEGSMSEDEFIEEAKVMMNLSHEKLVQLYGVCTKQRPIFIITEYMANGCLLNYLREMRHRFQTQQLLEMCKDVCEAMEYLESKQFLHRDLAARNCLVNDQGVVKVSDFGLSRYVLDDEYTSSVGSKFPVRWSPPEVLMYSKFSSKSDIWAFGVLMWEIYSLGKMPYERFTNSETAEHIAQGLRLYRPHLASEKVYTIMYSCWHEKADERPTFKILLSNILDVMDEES
Chain of PYK2 (Q14289 whole entry, the tested form may be a part): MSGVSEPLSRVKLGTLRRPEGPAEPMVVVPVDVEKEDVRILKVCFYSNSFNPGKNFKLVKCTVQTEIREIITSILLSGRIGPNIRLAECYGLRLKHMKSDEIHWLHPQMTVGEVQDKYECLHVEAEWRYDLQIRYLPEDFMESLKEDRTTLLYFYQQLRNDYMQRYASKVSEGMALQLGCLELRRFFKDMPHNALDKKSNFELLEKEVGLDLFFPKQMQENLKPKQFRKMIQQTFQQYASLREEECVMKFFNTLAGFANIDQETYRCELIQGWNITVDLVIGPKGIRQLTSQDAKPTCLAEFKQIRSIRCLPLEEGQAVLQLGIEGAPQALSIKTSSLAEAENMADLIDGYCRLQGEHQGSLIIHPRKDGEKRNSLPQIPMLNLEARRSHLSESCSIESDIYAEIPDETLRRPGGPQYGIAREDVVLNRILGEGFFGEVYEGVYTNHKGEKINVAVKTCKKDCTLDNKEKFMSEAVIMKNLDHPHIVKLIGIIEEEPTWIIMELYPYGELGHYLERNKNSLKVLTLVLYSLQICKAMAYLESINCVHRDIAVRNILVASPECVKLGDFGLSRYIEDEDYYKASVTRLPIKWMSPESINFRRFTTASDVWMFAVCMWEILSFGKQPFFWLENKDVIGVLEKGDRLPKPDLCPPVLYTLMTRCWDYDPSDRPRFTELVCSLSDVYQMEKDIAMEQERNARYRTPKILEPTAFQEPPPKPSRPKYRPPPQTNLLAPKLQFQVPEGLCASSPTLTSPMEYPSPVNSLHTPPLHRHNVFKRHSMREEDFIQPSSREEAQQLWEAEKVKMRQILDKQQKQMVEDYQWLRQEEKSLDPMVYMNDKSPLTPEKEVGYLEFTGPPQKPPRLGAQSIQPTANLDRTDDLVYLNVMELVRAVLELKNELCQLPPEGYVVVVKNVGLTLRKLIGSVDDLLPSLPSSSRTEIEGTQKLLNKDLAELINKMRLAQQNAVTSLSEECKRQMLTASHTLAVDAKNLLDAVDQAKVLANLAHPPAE
Chain of MAP3K4 (Q9Y6R4 whole entry): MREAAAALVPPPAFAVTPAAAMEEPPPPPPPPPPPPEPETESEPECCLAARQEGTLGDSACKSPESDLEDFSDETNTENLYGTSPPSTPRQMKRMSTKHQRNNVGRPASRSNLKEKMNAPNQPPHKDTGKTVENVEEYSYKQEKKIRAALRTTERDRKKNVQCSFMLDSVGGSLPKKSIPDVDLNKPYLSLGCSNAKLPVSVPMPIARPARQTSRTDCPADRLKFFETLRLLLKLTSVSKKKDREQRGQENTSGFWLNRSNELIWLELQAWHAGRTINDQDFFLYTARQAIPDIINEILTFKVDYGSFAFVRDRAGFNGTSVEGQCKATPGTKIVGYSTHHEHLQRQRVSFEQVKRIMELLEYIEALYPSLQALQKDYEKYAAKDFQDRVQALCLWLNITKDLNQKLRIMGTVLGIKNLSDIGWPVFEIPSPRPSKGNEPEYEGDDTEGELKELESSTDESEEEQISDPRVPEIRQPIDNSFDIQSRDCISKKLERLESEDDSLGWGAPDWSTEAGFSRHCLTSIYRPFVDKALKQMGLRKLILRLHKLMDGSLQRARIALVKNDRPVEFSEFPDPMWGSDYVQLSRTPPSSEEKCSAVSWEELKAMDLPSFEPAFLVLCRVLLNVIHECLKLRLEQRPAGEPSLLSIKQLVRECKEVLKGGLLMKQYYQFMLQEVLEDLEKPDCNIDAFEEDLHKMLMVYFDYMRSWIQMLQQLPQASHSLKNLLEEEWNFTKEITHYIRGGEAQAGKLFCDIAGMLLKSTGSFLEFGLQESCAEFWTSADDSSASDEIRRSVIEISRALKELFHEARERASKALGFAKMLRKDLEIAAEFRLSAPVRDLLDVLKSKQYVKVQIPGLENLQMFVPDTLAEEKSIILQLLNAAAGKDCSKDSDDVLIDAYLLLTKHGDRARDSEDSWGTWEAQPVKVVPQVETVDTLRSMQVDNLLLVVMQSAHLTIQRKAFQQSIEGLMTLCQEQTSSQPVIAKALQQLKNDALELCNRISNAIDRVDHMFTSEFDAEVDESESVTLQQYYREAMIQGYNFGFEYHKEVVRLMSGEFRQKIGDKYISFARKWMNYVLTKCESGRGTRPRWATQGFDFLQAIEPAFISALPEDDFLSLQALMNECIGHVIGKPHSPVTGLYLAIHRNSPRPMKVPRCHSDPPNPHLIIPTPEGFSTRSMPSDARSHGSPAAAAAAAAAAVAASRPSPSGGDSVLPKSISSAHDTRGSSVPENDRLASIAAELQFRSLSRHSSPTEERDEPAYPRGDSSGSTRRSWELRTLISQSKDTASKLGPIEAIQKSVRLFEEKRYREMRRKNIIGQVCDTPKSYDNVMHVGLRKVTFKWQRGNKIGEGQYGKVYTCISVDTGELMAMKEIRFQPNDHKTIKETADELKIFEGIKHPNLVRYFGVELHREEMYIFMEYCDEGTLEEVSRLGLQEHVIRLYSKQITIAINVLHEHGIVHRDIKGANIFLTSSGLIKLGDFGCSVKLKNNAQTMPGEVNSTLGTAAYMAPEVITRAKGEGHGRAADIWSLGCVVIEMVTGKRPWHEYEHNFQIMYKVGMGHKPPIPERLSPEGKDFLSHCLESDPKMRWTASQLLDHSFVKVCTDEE
Chain of IRE1 (O75460 19-977): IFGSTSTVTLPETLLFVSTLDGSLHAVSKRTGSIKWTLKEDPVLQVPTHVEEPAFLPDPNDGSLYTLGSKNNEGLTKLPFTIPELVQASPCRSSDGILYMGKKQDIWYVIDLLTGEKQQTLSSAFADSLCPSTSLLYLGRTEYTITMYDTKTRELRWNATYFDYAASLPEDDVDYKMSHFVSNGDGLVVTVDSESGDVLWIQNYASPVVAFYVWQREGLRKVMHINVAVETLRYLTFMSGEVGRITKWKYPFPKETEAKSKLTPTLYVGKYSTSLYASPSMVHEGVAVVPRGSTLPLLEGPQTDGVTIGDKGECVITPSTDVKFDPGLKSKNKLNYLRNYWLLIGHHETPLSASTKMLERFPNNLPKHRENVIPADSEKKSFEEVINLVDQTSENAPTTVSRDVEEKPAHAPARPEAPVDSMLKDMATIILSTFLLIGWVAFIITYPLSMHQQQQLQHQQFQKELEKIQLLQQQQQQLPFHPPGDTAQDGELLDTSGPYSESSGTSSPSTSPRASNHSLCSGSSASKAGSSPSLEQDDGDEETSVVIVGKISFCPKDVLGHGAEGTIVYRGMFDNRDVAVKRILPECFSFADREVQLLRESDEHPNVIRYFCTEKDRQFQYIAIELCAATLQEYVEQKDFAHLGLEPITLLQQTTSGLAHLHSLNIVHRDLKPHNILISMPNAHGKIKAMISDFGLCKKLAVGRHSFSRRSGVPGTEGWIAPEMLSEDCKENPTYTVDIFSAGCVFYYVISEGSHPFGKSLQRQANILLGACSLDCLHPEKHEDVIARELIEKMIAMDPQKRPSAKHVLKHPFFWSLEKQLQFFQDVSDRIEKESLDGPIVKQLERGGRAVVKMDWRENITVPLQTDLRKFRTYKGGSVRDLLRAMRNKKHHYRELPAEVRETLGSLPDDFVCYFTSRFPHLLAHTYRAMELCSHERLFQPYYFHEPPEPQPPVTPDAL
Chain of RSK1 domain1 (Q15418 whole entry, the tested form may be a part): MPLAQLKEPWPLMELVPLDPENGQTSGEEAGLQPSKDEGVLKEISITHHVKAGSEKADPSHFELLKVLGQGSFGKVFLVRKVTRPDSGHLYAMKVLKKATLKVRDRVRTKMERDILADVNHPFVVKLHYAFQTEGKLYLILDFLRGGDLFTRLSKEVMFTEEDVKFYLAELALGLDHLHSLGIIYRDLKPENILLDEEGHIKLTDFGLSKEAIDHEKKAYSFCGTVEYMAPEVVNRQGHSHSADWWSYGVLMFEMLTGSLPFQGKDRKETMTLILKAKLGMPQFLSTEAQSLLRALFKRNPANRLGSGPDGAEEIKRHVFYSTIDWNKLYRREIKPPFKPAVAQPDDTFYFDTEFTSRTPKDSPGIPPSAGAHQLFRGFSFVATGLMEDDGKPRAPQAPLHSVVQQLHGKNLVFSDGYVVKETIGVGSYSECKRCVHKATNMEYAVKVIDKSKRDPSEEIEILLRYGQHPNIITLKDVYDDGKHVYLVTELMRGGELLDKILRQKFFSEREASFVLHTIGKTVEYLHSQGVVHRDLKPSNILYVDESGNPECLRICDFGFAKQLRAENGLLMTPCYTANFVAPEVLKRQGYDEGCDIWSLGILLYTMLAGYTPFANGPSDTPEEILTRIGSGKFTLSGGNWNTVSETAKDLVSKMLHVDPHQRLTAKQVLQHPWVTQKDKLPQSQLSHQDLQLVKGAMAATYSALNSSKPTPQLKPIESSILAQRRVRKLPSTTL

Cn1cc(-c2c[nH]c3ncnc(N4CCOCC4)c23)cn1 [Example 1, 5-(1-Methyl-1H-pyrazol-4-yl)-4-(morpholin-4-yl)-7H-pyrrolo[2,3-d]pyrimidine]
IC50 (mutant G2019S LRRK2): 36 nM
percent inhibition (AKT2, AKT3; 0.1 μM): 1.6%
percent inhibition (AKT2, AKT3; 1 μM): 10.7%
inhibition at 0.1 µM (BTK; BTK, 0.1 μM): 8.7%
inhibition at 1 µM (BTK; BTK, 1 μM): 3.7%
inhibition at 0.1 µM (CaMK1d; CaMK1d, 0.1 μM): 8.4%
inhibition at 1 µM (CaMK1d; CaMK1d, 1 μM): 3.2%
percent inhibition (CDK11, CDK8; 0.1 μM): 4.4%
percent inhibition (CDK11, CDK8; 1 μM): 2.4%
inhibition at 0.1 µM (DNAPK; DNAPK, 0.1 μM): -4.4%
inhibition at 1 µM (DNAPK; DNAPK, 1 μM): -30%
inhibition at 0.1 µM (FAK; FAK, 0.1 μM): 18%
inhibition at 1 µM (FAK; FAK, 1 μM): 20%
inhibition at 0.1 µM (FGR; FGR, 0.1 μM): 12.9%
inhibition at 1 µM (FGR; FGR, 1 μM): 4.6%
percent inhibition (FYN, SRC, YES; 0.1 μM): −24.1%
percent inhibition (FYN, SRC, YES; 1 μM): −56.3%
inhibition at 0.1 µM (GSK3A; GSK3A, 0.1 μM): -0.2%
inhibition at 1 µM (GSK3A; GSK3A, 1 μM): -11.4%
inhibition at 0.1 µM (IKKa; IKKa, 0.1 μM): -20%
inhibition at 1 µM (IKKa; IKKa, 1 μM): -40.5%
inhibition at 0.1 µM (IRE1; IRE1, 0.1 μM): -1.3%
inhibition at 1 µM (IRE1; IRE1, 1 μM): -8%
inhibition at 0.1 µM (LATS1; LATS1, 0.1 μM): 4.2%
inhibition at 1 µM (LATS1; LATS1, 1 μM): -16.2%
inhibition at 0.1 µM (LYN; LYN, 0.1 μM): 3.8%
inhibition at 1 µM (LYN; LYN, 1 μM): 7.8%
inhibition at 0.1 µM (MAP3K3; MAP3K3, 0.1 μM): -9.2%
inhibition at 1 µM (MAP3K3; MAP3K3, 1 μM): 7.2%
inhibition at 0.1 µM (MAP3K4; MAP3K4, 0.1 μM): -14%
inhibition at 1 µM (MAP3K4; MAP3K4, 1 μM): 6.9%
inhibition at 0.1 µM (MARK2; MARK2, 0.1 μM): 10.1%
inhibition at 1 µM (MARK2; MARK2, 1 μM): 41.6%
inhibition at 0.1 µM (MST1; 0.1 μM): 13.2%
inhibition at 1 µM (MST1; 1 μM): 50.8%
percent inhibition (MST1, MST2; 0.1 μM): −14.5%
percent inhibition (MST1, MST2; 1 μM): 24.8%
inhibition at 0.1 µM (MST2; 0.1 μM): 10.1%
inhibition at 1 µM (MST2; 1 μM): 49.4%
inhibition at 0.1 µM (OSR1; OSR1, 0.1 μM): -7.8%
inhibition at 1 µM (OSR1; OSR1, 1 μM): -4%
inhibition at 0.1 µM (p70S6Kb; p70S6Kb, 0.1 μM): 15%
inhibition at 1 µM (p70S6Kb; p70S6Kb, 1 μM): 10.1%
percent inhibition (PCTAIRE2, PCTAIRE3; 0.1 μM): 7.5%
percent inhibition (PCTAIRE2, PCTAIRE3; 1 μM): −2.5%
inhibition at 0.1 µM (PI4KB; PI4KB, 0.1 μM): 34%
inhibition at 1 µM (PI4KB; PI4KB, 1 μM): 16.1%
inhibition at 0.1 µM (PIK3CB; PIK3CB, 0.1 μM): -2.6%
inhibition at 1 µM (PIK3CB; PIK3CB, 1 μM): -29.8%
inhibition at 0.1 µM (PIK3CD; PIK3CD, 0.1 μM): -102%
inhibition at 1 µM (PIK3CD; PIK3CD, 1 μM): -65.4%
inhibition at 0.1 µM (PIP4K2A; PIP4K2A, 0.1 μM): 12.1%
inhibition at 1 µM (PIP4K2A; PIP4K2A, 1 μM): 6.8%
inhibition at 0.1 µM (PKD2; PKD2, 0.1 μM): 2.7%
inhibition at 1 µM (PKD2; PKD2, 1 μM): 20.1%
inhibition at 0.1 µM (PYK2; PYK2, 0.1 μM): 5.9%
inhibition at 1 µM (PYK2; PYK2, 1 μM): 19.5%
inhibition at 0.1 µM (RSK1 domain1; RSK1 domain1, 0.1 μM): 16.3%
inhibition at 1 µM (RSK1 domain1; RSK1 domain1, 1 μM): 59.8%
inhibition at 0.1 µM (RSK2 domain1; RSK2 domain1, 0.1 μM): -6.8%
inhibition at 1 µM (RSK2 domain1; RSK2 domain1, 1 μM): 5.6%
inhibition at 0.1 µM (TAO2; TAO2, 0.1 μM): -6.3%
inhibition at 1 µM (TAO2; TAO2, 1 μM): -24.2%

N#Cc1cccc(-c2c[nH]c3ncnc(N4CCOCC4)c23)c1 [Example 4, 3-[4-(Morpholin-4-yl)-7H-pyrrolo[2,3-d]pyrimidin-5-yl]benzonitrile]
IC50 (mutant G2019S LRRK2): 11 nM
percent inhibition (AKT2, AKT3; 0.1 μM): −2.6%
percent inhibition (AKT2, AKT3; 1 μM): 6.8%
inhibition at 0.1 µM (BTK): -2.2%
inhibition at 1 µM (BTK): 9.5%
inhibition at 0.1 µM (CaMK1d): -12.1%
inhibition at 1 µM (CaMK1d): 0.9%
percent inhibition (CDK11, CDK8; 0.1 μM): 5%
percent inhibition (CDK11, CDK8; 1 μM): 36%
inhibition at 0.1 µM (DNAPK): -19.3%
inhibition at 1 µM (DNAPK): 14.7%
inhibition at 0.1 µM (FAK): -8.9%
inhibition at 1 µM (FAK): 11.1%
inhibition at 0.1 µM (FGR): -10.8%
inhibition at 1 µM (FGR): 1.7%
percent inhibition (FYN, SRC, YES; 0.1 μM): −22.8%
percent inhibition (FYN, SRC, YES; 1 μM): −8.8%
inhibition at 0.1 µM (GSK3A): -0.9%
inhibition at 1 µM (GSK3A): 7.2%
inhibition at 0.1 µM (IKKa): -12.1%
inhibition at 1 µM (IKKa): -6.6%
inhibition at 0.1 µM (IRE1): -16%
inhibition at 1 µM (IRE1): 1.8%
inhibition at 0.1 µM (LATS1): -4.8%
inhibition at 1 µM (LATS1): 5.4%
inhibition at 0.1 µM (LYN): -5.4%
inhibition at 1 µM (LYN): 0.8%
inhibition at 0.1 µM (MAP3K3): -0.5%
inhibition at 1 µM (MAP3K3): 7.4%
inhibition at 0.1 µM (MAP3K4): 9.7%
inhibition at 1 µM (MAP3K4): 29.8%
inhibition at 0.1 µM (MARK2): -4.7%
inhibition at 1 µM (MARK2): 27.3%
inhibition at 0.1 µM (OSR1): -23.1%
inhibition at 1 µM (OSR1): -55.4%
inhibition at 0.1 µM (p70S6Kb): 11.4%
inhibition at 1 µM (p70S6Kb): 18.5%
percent inhibition (PCTAIRE2, PCTAIRE3; 0.1 μM): −5.4%
percent inhibition (PCTAIRE2, PCTAIRE3; 1 μM): 24.7%
inhibition at 0.1 µM (PI4KB): -7.4%
inhibition at 1 µM (PI4KB): 4.9%
inhibition at 0.1 µM (PIK3CB): 0.5%
inhibition at 1 µM (PIK3CB): -2.5%
inhibition at 0.1 µM (PIK3CD): -14%
inhibition at 1 µM (PIK3CD): -12.4%
inhibition at 0.1 µM (PIP4K2A): -12.1%
inhibition at 1 µM (PIP4K2A): 1.9%
inhibition at 0.1 µM (PKD2): 0.7%
inhibition at 1 µM (PKD2): 9.4%
inhibition at 0.1 µM (PYK2): -3.9%
inhibition at 1 µM (PYK2): 2.5%
inhibition at 0.1 µM (RSK1 domain1): -26.8%
inhibition at 1 µM (RSK1 domain1): 32.9%
inhibition at 0.1 µM (RSK2 domain1): -6%
inhibition at 1 µM (RSK2 domain1): -11.2%
inhibition at 0.1 µM (TAO2): -12.7%
inhibition at 1 µM (TAO2): -2.5%
